Experimental data published in paper PMC9820279 (International Journal of Molecular Sciences, 2022).
Like-named read-outs stand apart in the source and are kept apart here.

What was measured:
[1] = cited from earlier work
[2] = tested on: HBMEC monolayer
Procedure: The cell line HBMEC was used as a simplified in vitro model of the BBB endothelium. […] Endothelial cell cultures were maintained at 37 °C in a humid atmosphere enriched with 5% CO2. In our studies, HBMEC were used between passage 25 and 29. For experiments, HBMECs were seeded using a volume of 200 µL at a density of 8 × 10^4 cells/mL in rat tail collagen-I (100 µg/mL) coated 96-well plates (for viability assay) or 500 µL at a density of 1.6 × 10^5 cells/mL in rat tail collagen-I (100 µg/mL) coated semi-permeable membranes in transwell inserts (0.4 µm pore, Corning Costar Corp., USA; for BBB integrity and transport assays) for 12-well plates. The incubation timepoints were assay dependent.
For the transendothelial transport assays, HBMEC were seeded on transwell inserts as described above and are schematically depicted in Figure 1a. After seeding, the media were changed every two days. Four days post-seeding, the HBMEC monolayer was formed, and the transport studies were performed. […] Vupper and Vlower is the upper and lower compartment volume (0.5 and 1.5 mL, respectively). The culture inserts were used for the subsequent integrity permeability studies.

[3] = tested on: BChE; settings: previously studied by the group; cited from earlier work
[4] = tested on: AChE; settings: previously studied by the group; cited from earlier work
[5] = tested on: LOX; set-up: method as in PMID 35782945, PMID 34869538, PMID 34209864, PMID 35498984, PMID 34923590; settings: previously studied by the group; cited from earlier work
[6] = set-up: method as in PMID 35782945, PMID 34869538, PMID 34209864, PMID 35498984, PMID 34923590; settings: previously studied by the group; cited from earlier work
[7] = matrix ASFE extract 24 µg/mL, 2 h incubation, n.d = not detected in lower compartment
[8] = matrix ASFE extract 24 µg/mL, 4 h incubation, n.d = not detected in lower compartment

Oc1cc(O)c2c(c1)O[C@H](c1ccc(O)c(O)c1)[C@H](O)[C@H]2c1c(O)cc(O)c2c1O[C@H](c1ccc(O)c(O)c1)[C@H](O)C2 [Procyanidin B2]
Detection in the lower well of the PAMPA-BBB model ([1]; PAMPA): not detected in the lower well | Detection / transport to lower compartment (brain side) of HBMEC-BBB model ([2]; ASFE extract): could reach the “brain side” | Te % (SEM) 2 h [2, 7]: 56.8 (0.0) % | Te % (SEM) 4 h [2, 8]: 61.9 (2.6) %

CC(C)=CCC/C(C)=C/CC/C(C)=C/CC/C=C(\C)CC/C=C(\C)CCC=C(C)C [Squalene]
Crossing of the PAMPA-BBB system ([1]; PLE100 extract compounds): could not cross | Detection in basolateral compartment (brain side) of HBMEC-BBB model ([2]; PLE100 extract): detected in the basolateral compartment | Te % (SEM) 2 h ([2]; matrix OL-SS extract 40 µg/mL, 2 h incubation, n.d = not detected in lower compartment): 24.1 (1.4) % | Te % (SEM) 4 h ([2]; matrix OL-SS extract 40 µg/mL, 4 h incubation, n.d = not detected in lower compartment): 33.2 (0.9) % | Te % (SEM) 2 h ([2]; matrix PLE100 extract 15 µg/mL, 2 h incubation, n.d = not detected in lower compartment): 19.1 (1.4) % | Te % (SEM) 4 h ([2]; matrix PLE100 extract 15 µg/mL, 4 h incubation, n.d = not detected in lower compartment): 47.6 (1.5) %

COc1ccc2c3c1O[C@H]1C[C@@H](O)C=C[C@@]31CCN(C)C2 [Galantamine]
BChE IC50 [3]: 2.36 µg/mL | AChE IC50 [4]: 0.40 µg/mL

O=c1c(O)c(-c2ccc(O)c(O)c2)oc2cc(O)cc(O)c12 [Quercetin]
LOX IC50 [5]: 125.7 µg/mL

O=c1c(O[C@@H]2O[C@H](CO)[C@@H](O)[C@H](O)[C@H]2O)c(-c2ccc(O)c(O)c2)oc2cc(O)cc(O)c12 [Isoquercitrin]
Crossing of the in vitro PAMPA-BBB ([1]; PAMPA): not capable of crossing | Te % (SEM) 2 h ([2]; human, 2 h, 30 µg/mL): 6.0 (0.2) % | Te % (SEM) 4 h ([2]; human, 4 h, 30 µg/mL): 16.3 (1.3) %

COc1cc(/C=C/C(=O)O)cc(OC)c1O [Sinapic acid]
Detection in the lower well of the PAMPA-BBB model ([1]; ASFE extract compounds): not detected in the lower well | Crossing of the in vitro PAMPA-BBB ([1]; T33 extract compounds): not capable of crossing | Te % (SEM) 2 h [2]: 35.6 (2.0)/n.d % | Te % (SEM) 4 h [2]: 44.4 (3.2)/18.6 (0.5) % | Detection / transport to lower compartment (brain side) of HBMEC-BBB model ([2]; ASFE extract): could reach the “brain side” | Te % (SEM) 4 h [2, 8]: 44.4 (3.2)/18.6 (0.5) %

Oc1cccc(O)c1O [Pyrogallol]
Detection in the lower well of the PAMPA-BBB model ([1]; ASFE extract compounds): not detected in the lower well | Detection / transport to lower compartment (brain side) of HBMEC-BBB model [2]: could reach the “brain side” | Te % (SEM) 2 h ([2]; human, 2 h, 24 µg/mL): 37.6 (2.6) % | Te % (SEM) 4 h ([2]; human, 4 h, 24 µg/mL): 80.5 (1.1) %

C[C@H]1[C@H](C)CC[C@]2(C)CC[C@]3(C)C(=CC[C@@H]4[C@@]5(C)CC[C@H](O)C(C)(C)[C@@H]5CC[C@]43C)[C@H]12 [α-Amyrin]
Detection in the PAMPA-BBB model ([1]; OL-SS extract compounds): not detected | Detection in basolateral compartment (brain side) of HBMEC-BBB model ([2]; OL-SS extract): not detected

Oc1ccc(/C=C/c2cc(O)cc3c2[C@@H](c2cc(O)cc(O)c2)[C@H](c2ccc(O)cc2)O3)cc1 [e-viniferin]
Detection in the lower well of the PAMPA-BBB model ([1]; ASFE extract compounds): not detected in the lower well | Detection / transport to lower compartment (brain side) of HBMEC-BBB model ([2]; ASFE extract): could reach the “brain side” | Te % (SEM) 2 h [2, 7]: 39.2 (2.2) % | Te % (SEM) 4 h [2, 8]: 45.9 (3.0) %

C[C@@H]1CCCC2=CC[C@@H]3[C@@H](C3(C)C)[C@]21C [(-)-Aristolene]
Crossing of the PAMPA-BBB system ([1]; PLE100 extract compounds): could not cross | Te % (SEM) 2 h [2]: 39.7 (0.4) % | Te % (SEM) 4 h [2]: 71.3 (1.6) % | Detection in basolateral compartment (brain side) of HBMEC-BBB model ([2]; PLE100 extract): detected in the basolateral compartment

O=C1O[C@H]([C@@H](O)CO)C(O)=C1O [Ascorbic acid]
RNS IC50 [6]: 1100.9 µg/mL

O=C1c2c(O)cc(O)cc2O[C@H](c2ccc(O)cc2)[C@H]1O [Aromadendrin]
Detection in the lower well of the PAMPA-BBB model ([1]; ASFE extract compounds): not detected in the lower well | Detection / transport to lower compartment (brain side) of HBMEC-BBB model ([2]; ASFE extract): could reach the “brain side” | Te % (SEM) 2 h [2, 7]: 76.2 (0.8) % | Te % (SEM) 4 h [2, 8]: 78.7 (0.7) %

CC1(C)CC[C@]2(C)CC[C@]3(C)C(=CC[C@@H]4[C@@]5(C)CC[C@H](O)C(C)(C)[C@@H]5CC[C@]43C)[C@@H]2C1 [β-Amyrin]
Crossing of the PAMPA-BBB system ([1]; PAMPA): not detected | Detection in the PAMPA-BBB model ([1]; PAMPA): not detected | Detection in basolateral compartment (brain side) of HBMEC-BBB model ([2]; OL-SS extract): not detected | Detection in basolateral compartment (brain side) of HBMEC-BBB model ([2]; PLE100 extract): not detected

C=C(C)[C@@H]1CC[C@]2(C)CC[C@]3(C)[C@H](CC[C@@H]4[C@@]5(C)CC[C@H](OC(C)=O)C(C)(C)[C@@H]5CC[C@]43C)[C@@H]12 [Lupeol acetate]
Detection in the PAMPA-BBB model ([1]; OL-SS extract compounds): not detected | Detection in basolateral compartment (brain side) of HBMEC-BBB model ([2]; OL-SS extract): not detected

O=c1oc2c(O)c(O)cc3c(=O)oc4c(O)c(O)cc1c4c23 [Ellagic acid]
Detection in the lower well of the PAMPA-BBB model ([1]; ASFE extract compounds): not detected in the lower well | Detection / transport to lower compartment (brain side) of HBMEC-BBB model [2]: could reach the “brain side” | Te % (SEM) 2 h ([2]; human, 2 h, 24 µg/mL): 42.4 (1.6) % | Te % (SEM) 4 h ([2]; human, 4 h, 24 µg/mL): 85.5 (2.5) %

O=C(/C=C/c1ccc(O)c(O)c1)O[C@@H](C(=O)O)[C@@H](O)C(=O)O [Caftaric acid]
Detection in the lower well of the PAMPA-BBB model ([1]; ASFE extract compounds): not detected in the lower well | Detection / transport to lower compartment (brain side) of HBMEC-BBB model [2]: could reach the “brain side” | Te % (SEM) 2 h ([2]; human, 2 h, 24 µg/mL): 46.3 (3.6) % | Te % (SEM) 4 h ([2]; human, 4 h, 24 µg/mL): 87.6 (3.5) %

COc1cc(/C=C/C(=O)O)ccc1O [Ferulic acid]
Detection in the lower well of the PAMPA-BBB model ([1]; ASFE extract compounds): not detected in the lower well | Detection / transport to lower compartment (brain side) of HBMEC-BBB model ([2]; ASFE extract): could reach the “brain side” | Te % (SEM) 4 h [2, 8]: 9.1 (0.3) %

CC(CC(=O)C[C@@H](C)[C@H]1C[C@H](O)[C@@]2(C)C3=C(C(=O)C[C@]12C)[C@@]1(C)CC[C@H](O)C(C)(C)[C@@H]1CC3)C(=O)O (stereo partly shown) [Ganolucidic acid B]
Detection in the lower well of the PAMPA-BBB model ([1]; ASFE extract compounds): not detected in the lower well | Detection / transport to lower compartment (brain side) of HBMEC-BBB model ([2]; ASFE extract): could reach the “brain side” | Te % (SEM) 2 h [2, 7]: 28.4 (1.1) % | Te % (SEM) 4 h [2, 8]: 28.6 (1.5) %

C[C@H]1[C@H](C)CC[C@]2(CO)CC[C@]3(C)C(=CC[C@@H]4[C@@]5(C)CC[C@H](O)C(C)(C)[C@@H]5CC[C@]43C)[C@H]12 [uvaol]
Detection in the PAMPA-BBB model ([1]; OL-SS extract compounds): detected in the acceptor well | Detection in basolateral compartment (brain side) of HBMEC-BBB model ([2]; OL-SS extract): detected

CC(C)=CCC/C(C)=C\CO [Nerol]
Crossing of the PAMPA-BBB system ([1]; PLE100 extract compounds): could not cross | Detection in basolateral compartment (brain side) of HBMEC-BBB model ([2]; PLE100 extract): detected in the basolateral compartment | Te % (SEM) 2 h ([2]; human): 26.8 (0.2) % | Te % (SEM) 4 h ([2]; human): 41.5 (3.1) %

CC1(C)CCCC2(C)OC(=O)C=C12 (stereo not shown) [Dihydroactinidiolide]
Te % (SEM) 2 h ([2]; human): 42.2 (3.5) % | Te % (SEM) 4 h ([2]; human): 51.8 (3.0) %
